Results on 4 compounds are retold here after patent US5573772A, “Methods for protecting tissues and organs from ischemic damage” (priority 1994, dated 1996).

Experiment [1] deals with isolated rabbit hearts. Kind of experiment: Hemodynamic responses (heart rate, coronary flow, LVDP, AV conduction) in isolated perfused rabbit hearts, Example 1. More on the design: species or system rabbit (New Zealand white). The following applies: for Hemodynamics, treatment alone: SPT or DPCPX alone. The protocol:
These solutions were then diluted in Krebs buffer to the final concentration just before the experiments started. New Zealand white rabbits of either sex, between 1.4-2.4 kg, were anesthetized with intravenous sodium pentobarbital (30 mg/kg). The neck was opened and a tracheotomy was performed. The rabbits were ventilated with 100% oxygen via a positive pressure respirator (MD industries, Mobile, Ala.). Ventilation rate was 30-35 breaths per minute, and tidal volume was approximately 15 ml. A left thoracotomy was performed in the fourth intercostal space and pericardium was opened to expose the heart. A 2-0 silk suture with an RB taper needle was passed around a branch of the left coronary artery, and the end of the silk were threaded through a small vinyl tube to form a snare. The heads were quickly excised and mounted on a Langendorff apparatus and perfused at constant pressure with Krebs buffer containing (in mM) 118.5 NaCl, 4.7 KCl, 1.2 MgSO4, 1.2 K2 PO4, 24.3 NaHCO3, 2.5 CaCl2 and 10 glucose. […] The temperature of the perfusate was maintained at 37° C. The perfusion pressure was kept at 75 mm Hg. Pacing electrodes were placed on the right atrium and all hearts were paced at 200 beats/minute with pulses of 5 volts and 4 msec duration to keep the heart rate constant. A fluid-filled latex balloon connected to a transducer via PE240 tubing was inserted into the left ventricle. Balloon volume was adjusted to set the left ventricular diastolic pressure at 10 mm Hg at the beginning of the experiment. Total coronary artery flow was measured by timed collection of buffer from the chamber into a graduated cylinder. Regional ischemia was effected by pulling the snare tight and clamping the tube with a hemostat. Global ischemia was performed by clamping the inflow tubing of the Langendorff apparatus. Reperfusion was achieved by releasing the restriction. All hearts were allowed to equilibrate for 20 minutes before the experiments were started. Heart rate (HR), coronary flow (CF) and left ventricular developed pressure (LVDP) were recorded at the point just before and at the end of each treatment with the pacing momentarily turned off. The animals were divided into 10 groups. The hearts in all groups were subjected to 30 minutes of coronary branch occlusion followed by 120 minutes of reperfusion. Control group (CON, n=10) only experienced the above-mentioned 30 minutes of regional ischemia while the preconditioned group (PC, n=12) received an additional 5 minutes of global ischemia plus 10 minutes of reperfusion prior to the 30 minute occlusion. In the adenosine group (ADO, n=6) and the APNEA group (APNEA, n=5), the hearts were exposed to 10 uM adenosine and 50 nM APNEA respectively, for 5 minutes as a substitute for ischemic preconditioning. The drug was allowed to washout for 10 minutes before the 30 minute ischemia was started. In groups receiving SPT, the blocker was included in the perfusate for 15 minutes at 100 uM starting 5 minutes before the exposure of ADO (ADO-SPT group, n=6) or APNEA (APNEA-SPT group, n=5) or 5 minutes before and after 5 minutes of preconditioning ischemia (PC-SPT group, n=5). […] All results are expressed as group mean±SEM. The differences among groups was determined by a one-way analysis of variance with a Newman-Keuls post hoc test. A value of p<0.05 was considered to be significant. In order to ensure that the adenosinergic agents were active at the concentrations employed, hemodynamic responses were measured in a separate group of animals who experienced similar surgery described above except the coronary snare was not installed and therefore the second group of animals were not exposed to ischemia. The hearts were quickly excised and mounted on the Langendorff apparatus and perfused with Krebs buffer. The depressant effect of adenosine on atrioventricular (AV) conduction time was measured at a constant rate of atrial pacing, as an index of A 1-mediated activity. […]

Experiment [2] concerns isolated rabbit hearts. Briefly: Dose-response of APNEA on infarct size in isolated rabbit hearts, Example 4 (Table A). The method, then: New Zealand white rabbits of either sex, between 1.4-2.4 kg, were anesthetized with intravenous sodium pentobarbital (30 mg/kg). The neck was opened and a tracheotomy was performed. The rabbits were ventilated with 100% oxygen via a positive pressure respirator (MD industries, Mobile, Ala.). Ventilation rate was 30-35 breaths per minute, and tidal volume was approximately 15 ml. A left thoracotomy was performed in the fourth intercostal space and pericardium was opened to expose the heart. A 2-0 silk suture with an RB taper needle was passed around a branch of the left coronary artery, and the end of the silk were threaded through a small vinyl tube to form a snare. The heads were quickly excised and mounted on a Langendorff apparatus and perfused at constant pressure with Krebs buffer containing (in mM) 118.5 NaCl, 4.7 KCl, 1.2 MgSO4, 1.2 K2 PO4, 24.3 NaHCO3, 2.5 CaCl2 and 10 glucose. […] The temperature of the perfusate was maintained at 37° C. The perfusion pressure was kept at 75 mm Hg. Pacing electrodes were placed on the right atrium and all hearts were paced at 200 beats/minute with pulses of 5 volts and 4 msec duration to keep the heart rate constant. A fluid-filled latex balloon connected to a transducer via PE240 tubing was inserted into the left ventricle. Balloon volume was adjusted to set the left ventricular diastolic pressure at 10 mm Hg at the beginning of the experiment. Total coronary artery flow was measured by timed collection of buffer from the chamber into a graduated cylinder. Regional ischemia was effected by pulling the snare tight and clamping the tube with a hemostat. Global ischemia was performed by clamping the inflow tubing of the Langendorff apparatus. Reperfusion was achieved by releasing the restriction. All hearts were allowed to equilibrate for 20 minutes before the experiments were started. Heart rate (HR), coronary flow (CF) and left ventricular developed pressure (LVDP) were recorded at the point just before and at the end of each treatment with the pacing momentarily turned off.
For the group to be exposed to ischemia, the silk suture under the coronary branch was tightly tied to occlude the artery at the end of each experiment, and a 0.5% suspension of fluorescent particles (1-10 um diameter from Duke Scientific Corp., Palo Alto, Calif.) were infused into the perfusate to mark the risk zone as the non-fluorescent tissue. The hearts were removed from the Langendorff apparatus, weighed and then frozen. The hearts were cut into 2 mm transverse slices. The slices were thawed and incubated in 1% triphenyl tetrazolium chloride (TTC) in pH 7.4 buffer for 20 minutes at 37° C. TTC reacts with NADH and dehydrogenase enzymes and stains all tissue still having them to a deep red color. […] After staining, the area of infarcted tissue (TTC negative tissue) and the risk zone (area lacking fluorescence under ultraviolet light) in each slice were traced. The area of infarct and risk zone were determined by planimetry of the tracing. The volume of infarcted myocardium and myocardium at risk was then calculated by multiplying the planimetered areas by the slice thickness.
In this study, applicants examined the effects of varying the dosage of APNEA on myocardial infarct size in Langendorff buffer-perfused rabbit hearts subject to 30 minutes of regional ischemia and 2 hours reperfusion. The methods utilized in this example are identical to those described in Example 1.
Six groups of hearts were studied: control untreated hearts (n=10); APNEA 0.5 nM (n=6); APNEA 5 nM (n=6); APNEA 50 nM (n=6); APNEA 500 nM (n=6); and APNEA 500 nM+DPCPX 200 nM.(n=6) In all cases, APNEA (0.5-500 nM) was infused for 5 minutes, beginning 15 minutes prior to 30 minutes of ischemia. The regional ischemia was produced by occlusion of the coronary artery, followed by 120 minutes of reperfusion.

Molecules are shown by their SMILES. “Also recorded” adds a separate entry of the source.

As for `Cn1c(=O)c2[nH]c(-c3ccc(S(=O)(=O)O)cc3)nc2n(C)c1=O` [SPT, 8-(p-Sulfophenyl)-theophylline], in the experiment on isolated rabbit hearts [1] (SPT 100 uM vs ADO), the “Blockade of CF increase from ADO infusion” value is recorded as “abolished” and the “Blockade of HR decrease from ADO infusion” value was “abolished”. Further, in the experiment on isolated rabbit hearts [1], the “Hemodynamics, treatment alone” value was “only slightly affected”.

Turning to `Nc1ccc(CCNc2ncnc3c2ncn3[C@@H]2O[C@H](CO)[C@@H](O)[C@H]2O)cc1` [APNEA, N^6-(2-(4-aminophenyl)ethyl) adenosine], in the experiment with isolated rabbit hearts [1] (APNEA 50 nM), the “Alteration of HR, CF or LVDP” value was “did not significantly alter HR, CF or LVDP”. Moreover, in the experiment on isolated rabbit hearts [1] (APNEA 50 nM, inferred from hemodynamics), the “Activation of A1 or A2 adenosine receptors” value is on record as “neither the A1 nor A2 adenosine receptors are activated”. Further, the “Effect on infarct size compared to untreated control” value in the experiment with isolated rabbit hearts [2] (APNEA 0.5 nM) is given as “no effect on infarct size”. Moreover, the “Infarct Area” value is reported as 14 ± 3 % of Risk in the experiment on isolated rabbit hearts [2] (APNEA 5 nM); 14 ± 3 % of Risk in the experiment with isolated rabbit hearts [2] (APNEA 50 nM); 8 ± 1 % of Risk in the experiment with isolated rabbit hearts [2] (APNEA 500 nM); 15 ± 5 % of Risk in the experiment with isolated rabbit hearts [2] (APNEA 500 nM + DPCPX 200 nM); 22 ± 5 % of Risk in the experiment with isolated rabbit hearts [2] (APNEA .5 nM, control 24 ± 1). The “Effect on infarct size” value in the experiment on isolated rabbit hearts [2] (APNEA 5, 50, and 500 nM) is on record as “reduced infarct size”.

As for `CCCn1c(=O)c2[nH]c(C3CCCC3)nc2n(CCC)c1=O` [DPCPX, 8-cyclopentyl-1,3-dipropylxanthine], in the experiment on isolated rabbit hearts [1] (DPCPX 200 nM vs ADO), the “Blockade of adenosine's effect on heart rate” value is recorded as “eliminated the decrease in HR; also recorded: entirely blocked; also recorded: completely blocked” and the “Effect on increase in CF from ADO infusion” value is reported as “did not affect the increase in CF”. Moreover, the “Hemodynamics, treatment alone” value in the experiment with isolated rabbit hearts [1] is “only slightly affected”. In the experiment on isolated rabbit hearts [2] (DPCPX 200 nM + APNEA 500 nM), the “Blockade of APNEA's infarct size reduction” value is reported as “not blocked”.

With `Nc1ncnc2c1ncn2[C@@H]1O[C@H](CO)[C@@H](O)[C@H]1O` [ADO, Adenosine], the “HR and CF effects of ADO after washout” value in the experiment with isolated rabbit hearts [1] (10 minutes of washout) was “completely disappeared”. For the same compound, the “Coronary flow (CF) after infusion” value with isolated rabbit hearts [1] (ADO 10 uM, 5 minutes, increased from 7.6±0.6 ml/g/min) was 10.3 ± 0.8 mL/g/min. The “Heart rate (HR) after infusion” value in the experiment with isolated rabbit hearts [1] (ADO 10 uM, 5 minutes, significantly decreased from 176±8 beats/min) is listed as 149±6 beats/minutes.
